# Molecular target: T1, human TGR5 (Homo sapiens, UniProt Q8TDU6)
# T1 construct: expressed in transfected cells; host or cells: HEK293
# T1 sequence (Q8TDU6 1-330): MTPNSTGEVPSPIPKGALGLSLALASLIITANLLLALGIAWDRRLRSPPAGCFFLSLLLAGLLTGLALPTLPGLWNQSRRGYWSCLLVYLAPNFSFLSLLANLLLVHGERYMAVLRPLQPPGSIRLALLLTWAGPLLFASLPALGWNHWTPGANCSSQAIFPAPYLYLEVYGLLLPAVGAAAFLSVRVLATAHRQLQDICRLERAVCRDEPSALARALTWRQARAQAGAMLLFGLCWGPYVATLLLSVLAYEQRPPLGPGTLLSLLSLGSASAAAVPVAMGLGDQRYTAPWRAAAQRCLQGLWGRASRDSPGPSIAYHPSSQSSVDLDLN
# Experiment: Cell-based TGR5 assay (cAMP generation, HTRF)
# Details: HEK293 cells stably transfected with human TGR5; cAMP by HTRF; 30 minutes at 37° C.; read-out: pEC50 Human TGR5 (converted)
# Protocol: A primary cell-based assay utilized HEK293 cells stably transfected with a gene encoding human TGR5. Cells were treated with candidate TGR5 activators and assessed for increased intercellular levels of cAMP.
# TGR5-mediated cAMP generation was measured using a homogeneous time resolved fluorescence (HTRF) detection method (Cisbio). Test compounds were dissolved in DMSO to a final concentration of 10 mM. Serial 3-fold dilutions of the stock solution were made in DMSO, and these solutions were diluted 100-fold into Hanks Balanced Salt Solution supplemented with 10 mM HEPES pH 7.4, 0.003% Tween 20 and 0.5 mM isobutyl methylxanthine. Five microliters of diluted test compounds were added to wells of a black 384 well plate.
# Cells grown overnight at 37° C./5% CO2 were harvested and resuspended in Hanks Balanced Salt Solution containing 10 mM HEPES to a concentration of […]. Five microliters (2500 cells) were dispensed into each well of the 384 well plate containing compound dilutions and incubated at 37° C. for 30 minutes. Each compound was tested in duplicate at 12 concentrations ranging from 0.05 nM to 10 μM.
# Following incubation with test compounds, cAMP was detected through the successive addition of 5 μL each of cAMP labeled with the modified allophyocyanin dye d2 (cAMP-d2) and cryptate-labeled anti-cAMP in lysis buffer, and reading HTRF per the manufacturer's instructions.
# A standard curve was used to convert the raw HTRF data into [cAMP]. The concentration of cAMP was plotted against log [test compound] and the resulting curves were fit to a 3-parameter logistical equation using GraphPad Prism to determine pEC50 (the negative log of the EC50) and the magnitude of the response.
row,SMILES,EC50
1,"Cc1ccc(SCCCCN(CCS(C)(=O)=O)C[C@H](O)[C@@H](O)[C@H](O)[C@H](O)CO)cc1COC1(c2cnccc2-c2ccccc2OC2CC2)CC1 [Compound I-615, (2R,3R,4R,5S)-6-[(4-{[3-({1-[4-(2-cyclopropoxyphenyl)pyridin-3-yl]cyclopropoxy}methyl)-4-methylphenyl]sulfanyl}butyl)(2-methanesulfonylethyl)amino]hexane-1,2,3,4,5-pentol]",< 100 nM
2,"Cc1ccc(SCCCN(CCCS(C)(=O)=O)C(=O)[C@@H](O)[C@@H](O)[C@H](O)[C@@H](O)CO)cc1COC1(c2cnccc2-c2ccccc2OC2CC2)CC1 [Compound I-537, (2S,3S,4R,5S)-N-(3-{[3-({1-[4-(2-cyclopropoxyphenyl)pyridin-3-yl]cyclopropoxy}methyl)-4-methylphenyl]sulfanyl}propyl)-2,3,4,5,6-pentahydroxy-N-(3-methanesulfonylpropyl) hexanamide]",126 to 1000 nM
3,"CCNC(=O)[C@@H](N)CCCCNS(=O)(=O)c1ccc(COC2(c3cnccc3-c3ccccc3OC3CC3)CC2)c(Cl)c1 [Compound I-486, (S)-2-amino-6-(3-chloro-4-((1-(4-(2-cyclopropoxyphenyl)pyridin-3-yl)cyclopropoxy)methyl)phenylsulfonamido)-N-ethylhexanamide]",126 to 1000 nM
4,"Cc1cc(COC2(c3cnccc3-c3ccccc3OC3CC3)CC2)c(Cl)cc1CCCCNC(=O)NC[C@@H]1O[C@H](CO)[C@@H](O)[C@H](O)[C@H]1O [Compound I-109, 3-{4-[5-chloro-4-({1-[4-(2-cyclopropoxyphenyl)pyridin-3-yl]cyclopropoxy}methyl)-2-methylphenyl]butyl}-1-{[(2S,3R,4R,5S,6R)-3,4,5-trihydroxy-6-(hydroxymethyl)oxan-2-yl]methyl}urea]",< 100 nM
5,"CCOC(=O)NCCN(CCCCSc1ccc(Cl)c(CNC2(c3cnccc3-c3ccccc3OC3CC3)CC2)c1)C(=O)[C@@H](O)[C@@H](O)[C@H](O)[C@@H](O)CO [Compound I-572, ethyl N-{2-[(2S,3S,4R,5S)-N-[4-({4-chloro-3-[({1-[4-(2-cyclopropoxyphenyl)pyridin-3-yl]cyclopropyl}amino)methyl]phenyl}sulfanyl)butyl]-2,3,4,5,6-pentahydroxyhexanamido]ethyl}carbamate]",< 100 nM
6,"NC(=O)N(Cc1cc(Cl)ccc1Cl)C1(c2cnccc2-c2ccccc2OC2CC2)CC1 [Compound I-57, 1-[1-[4-(2-cyclopropoxyphenyl)pyridin-3-yl]cyclopropyl]-1-[(2,5-dichloro-phenyl)methyl]urea]",1260 to 10000 nM
7,"O=C(NCCCCNS(=O)(=O)c1ccc(Cl)c(COC2(c3cnccc3-c3ccccc3OC3CC3)CC2)c1)NC[C@H](O)[C@@H](O)[C@H](O)[C@H](O)CO (stereo in doubt) [Compound I-401, 1-{4-[4-chloro-3-({1-[4-(2-cyclopropoxyphenyl)pyridin-3-yl]cyclopropoxy}methyl)benzenesulfonamido]butyl}-3-[(2S,3R,4R,5R)-2,3,4,5,6-pentahydroxyhexyl]urea]",< 100 nM
8,"O=C(NCCCCCNS(=O)(=O)c1ccc(Cl)c(COC2(c3cnccc3-c3ccccc3OC3CC3)CC2)c1)N[C@@H](CO)[C@@H](O)[C@H](O)[C@H](O)CO (stereo in doubt) [Compound I-409, 1-{5-[4-chloro-3-({1-[4-(2-cyclopropoxyphenyl)pyridin-3-yl]cyclopropoxy}methyl)benzenesulfonamido]pentyl}-3-[(2S,3R,4S,5R)-1,3,4,5,6-pentahydroxyhexan-2-yl]urea]",< 100 nM
9,O=C([C@@H](O)[C@@H](O)[C@H](O)[C@@H](O)CO)N(CCCCc1cc(Cl)c(COC2(c3cnccc3-c3ccccc3OC3CC3)CC2)cc1Cl)CCOCCO [Compound I-85],< 100 nM
10,"Cc1cc(COC2(c3cnccc3-c3ccccc3OC3CC3)CC2)c(C)cc1CCCCNC(=O)NC[C@H](O)[C@@H](O)[C@H](O)[C@H](O)CO (stereo in doubt) [Compound I-150, 1-{4-[4-({1-[4-(2-cyclopropoxyphenyl)pyridin-3-yl]cyclopropoxy}methyl)-2,5-dimethylphenyl]butyl}-3-[(2S,3R,4R,5R)-2,3,4,5,6-pentahydroxyhexyl]urea]",< 100 nM
11,"CC(CCCCN(CCOCCO)C(=O)NC[C@H](O)[C@@H](O)[C@H](O)[C@H](O)CO)c1ccc(Cl)c(CNC2(c3cnccc3-c3ccccc3OC3CC3)CC2)c1 (stereo partly drawn) [Compound I-270, 1-(5-{4-chloro-3-[({1-[4-(2-cyclopropoxyphenyl)pyridin-3-yl]cyclopropyl}amino)methyl]phenyl}hexyl)-1-[2-(2-hydroxyethoxy)ethyl]-3-[(2S,3R,4R,5R)-2,3,4,5,6-pentahydroxyhexyl]urea]",< 100 nM
12,"O=C(COC1CCN(S(=O)(=O)c2ccc(Cl)c(COC3(c4cnccc4-c4ccccc4OC4CC4)CC3)c2)CC1)NC[C@H](O)[C@@H](O)[C@H](O)[C@H](O)CO [Compound I-444, 2-({1-[4-chloro-3-({1-[4-(2-cyclopropoxyphenyl)pyridin-3-yl]cyclopropoxy}methyl)benzenesulfonyl]piperidin-4-yl}oxy)-N-[(2S,3R,4R,5R)-2,3,4,5,6-pentahydroxyhexyl]acetamide]",< 100 nM
13,"CC(C)(CC(=O)O)CC(=O)N(CCCCc1cc(Cl)c(CNC2(c3cnccc3-c3ccccc3OC3CC3)CC2)cc1Cl)C[C@H](O)[C@@H](O)[C@H](O)[C@H](O)CO [Compound I-201, 4-[(4-{2,5-dichloro-4-[({1-[4-(2-cyclopropoxyphenyl)pyridin-3-yl]cyclopropyl}amino)methyl]phenyl}butyl)[(2S,3R,4R,5R)-2,3,4,5,6-pentahydroxyhexyl]carbamoyl]-3,3-dimethylbutanoic acid]",1260 to 10000 nM
14,"CN(C[C@H](O)[C@@H](O)[C@H](O)[C@H](O)CO)C(=O)CCCS(=O)(=O)c1ccc(Cl)c(CNC2(c3cnccc3-c3ccccc3OC3CC3)CC2)c1 [Compound I-646, 4-{4-chloro-3-[({1-[4-(2-cyclopropoxyphenyl)pyridin-3-yl]cyclopropyl}amino)methyl]benzenesulfonyl}-N-methyl-N-[(2S,3R,4R,5R)-2,3,4,5,6-pentahydroxyhexyl]butanamide]",< 100 nM
15,O=C(NCCCCCSc1ccc(Cl)c(COC2(c3cnccc3-c3ccccc3OC3CC3)CC2)c1)NCCCCNC(=O)NC[C@H](O)[C@@H](O)[C@H](O)[C@H](O)CO [Compound I-627],< 100 nM
16,"CC(CCCCNC(=O)N[C@@H](CO)[C@@H](O)[C@H](O)[C@H](O)CO)c1ccc(Cl)c(CNC2(c3cnccc3-c3ccccc3OC3CC3)CC2)c1 (stereo partly drawn) [Compound I-266, 1-(5-{4-chloro-3-[({1-[4-(2-cyclopropoxyphenyl)pyridin-3-yl]cyclopropyl}amino)methyl]phenyl}hexyl)-3-[(2S,3R,4S,5R)-1,3,4,5,6-pentahydroxyhexan-2-yl]urea]",< 100 nM
17,"O=C(O)CN1CCN(CCNC(=O)CCCCc2cc(Cl)c(COC3(c4cnccc4-c4ccccc4OC4CC4)CC3)cc2Cl)CC1 [Compound I-91, 2-(4-(2-(5-(2,5-dichloro-4-((1-(4-(2-cyclopropoxyphenyl)pyridin-3-yl)cyclopropoxy)methyl)phenyl)pentanamido)ethyl)piperazin-1-yl)acetic acid]",< 100 nM
18,"O=C(NCC1CCN(S(=O)(=O)c2ccc(Cl)c(COC3(c4cnccc4-c4ccccc4OC4CC4)CC3)c2)C1)NC[C@H](O)[C@@H](O)[C@H](O)[C@H](O)CO (stereo partly drawn) [Compound I-420, 1-({1-[4-chloro-3-({1-[4-(2-cyclopropoxyphenyl)pyridin-3-yl]cyclopropoxy}methyl)benzenesulfonyl]pyrrolidin-3-yl}methyl)-3-[(2S,3R,4R,5R)-2,3,4,5,6-pentahydroxyhexyl]urea]",< 100 nM
19,"C[C@H](CCCCNC(=O)N[C@@H](CO)[C@@H](O)[C@H](O)[C@H](O)CO)c1ccc(Cl)c(COC2(c3cnccc3-c3ccccc3OC3CC3)CC2)c1 (single isomer, unassigned) [Compound I-264]",< 100 nM
20,"Clc1cccc(CNC2(c3cnccc3-c3ccccc3OC3CC3)CC2)c1Cl [Compound I-26, 1-[4-(2-cyclopropoxyphenyl)pyridin-3-yl]-N-[(2,3-dichlorophenyl)methyl]cyclopropan-1-amine]",126 to 1000 nM
21,"O=C(O)CNC(=O)N(CCCCc1cc(Cl)c(COC2(c3cnccc3-c3ccccc3OC3CC3)CC2)cc1Cl)C[C@H](O)[C@@H](O)[C@H](O)[C@H](O)CO (stereo in doubt) [Compound I-197, 2-[({4-[2,5-dichloro-4-({1-[4-(2-cyclopropoxyphenyl)pyridin-3-yl]cyclopropoxy}methyl)phenyl]butyl}[(2S,3R,4R,5R)-2,3,4,5,6-pentahydroxyhexyl]carbamoyl)amino]acetic acid]",126 to 1000 nM

# Reference: patent US12084472B2 (Ardelyx, Inc., priority 2015, dated 2024)
